Values belong to the compound of their own block, whether it stands above or below them. Active and inactive are the calls of the source. The calls are words filed in the database; no cut-off is given here.
Assays:
[1] = target: Cyclin-dependent kinase 2/cyclin E1 (Homo sapiens, UniProt P24941); experiment: Inhibition of recombinant human CDK2/cyclin E after 40 mins by ADP-Glo reagent based luminescence assay; format: protein-complex assay
MDA-MB-231 = experiment: Growth inhibition of human MDA-MB-231 cells at 20 uM by MTT assay; format: functional, cell-based
786-0 = experiment: Growth inhibition of human 786-O cells at 20 uM by MTT assay; format: functional, cell-based
MDA-MB-468 [2] = experiment: Growth inhibition of human MDA-MB-468 cells at 20 uM by MTT assay; format: functional, cell-based
HepG2 = experiment: Growth inhibition of human HepG2 cells at 20 uM by MTT assay; format: functional, cell-based
WM 266-4 = experiment: Growth inhibition of human WM266.4 cells at 20 uM by MTT assay; format: functional, cell-based
MCF7 = experiment: Growth inhibition of human MCF7 cells at 20 uM by MTT assay; format: functional, cell-based
[3] = target: Cyclin-dependent kinase 2 (Homo sapiens) (UniProt P24941); experiment: Inhibition of CDK2 in human MDA-MB-468 cells assessed as increase in cleaved PARP expression level at 15 uM measured up to 36 hrs by Western blot analysis; format: cell-based
[4] = target: Cyclin-dependent kinase 2 (Homo sapiens) (UniProt P24941); experiment: Inhibition of CDK2 in human MDA-MB-468 cells assessed as increase in cleaved caspase 3 expression level at 15 uM measured up to 36 hrs by Western blot analysis; format: cell-based
[5] = target: Cyclin-dependent kinase 2 (Homo sapiens) (UniProt P24941); experiment: Inhibition of CDK2 in human MDA-MB-468 cells assessed as decrease in caspase 3 expression level at 15 uM measured up to 36 hrs by Western blot analysis; format: cell-based
[6] = target: Cyclin-dependent kinase 4/cyclin D1 (Homo sapiens, UniProt P11802); experiment: Inhibition of recombinant human CDK4/cyclin D1 after 40 mins by ADP-Glo reagent based luminescence assay; format: protein-complex assay
CDK6/cyclin D3 = CDK6/cyclin D3 (Homo sapiens, UniProt Q00534); experiment: Inhibition of recombinant human CDK6/cyclin D3 after 40 mins by ADP-Glo reagent based luminescence assay; format: protein-complex assay
CDK7/Cyclin H/MNAT1 = CDK7/Cyclin H/MNAT1 (Homo sapiens, UniProt P50613); experiment: Inhibition of recombinant human CDK7/cyclin H/MNAT1 after 40 mins by ADP-Glo reagent based luminescence assay; format: protein-complex assay
MDA-MB-468 [7] = experiment: Antiproliferative activity against human MDA-MB-468 cells after 24 hrs by MTT assay; format: functional, cell-based; details: MDA-MB-468, 24 h
MDA-MB-468 [8] = experiment: Antiproliferative activity against human MDA-MB-468 cells after 48 hrs by MTT assay; format: functional, cell-based; details: MDA-MB-468, 48 h
MDA-MB-468 [9] = experiment: Antiproliferative activity against human MDA-MB-468 cells after 72 hrs by MTT assay; format: functional, cell-based; details: MDA-MB-468, 72 h
MDA-MB-468 [10] = experiment: Cell cycle arrest in human MDA-MB-468 cells assessed as accumulation at G1 phase at 15 uM after 24 hrs by propidium iodide staining based flow cytometry (reference value: 46.38%); format: functional
MDA-MB-468 [11] = experiment: Cell cycle arrest in human MDA-MB-468 cells assessed as accumulation at G2 phase at 15 uM after 24 hrs by propidium iodide staining based flow cytometry (reference value: 14.16%); format: functional
MDA-MB-468 [12] = experiment: Cell cycle arrest in human MDA-MB-468 cells assessed as accumulation at S phase at 15 uM after 24 hrs by propidium iodide staining based flow cytometry (reference value: 39.46%); format: functional
[13] = target: Cyclin-dependent kinase 2 (Homo sapiens) (UniProt P24941); experiment: Inhibition of CDK2 in human MDA-MB-468 cells assessed as decrease in CDK2 phosphorylation at […] residues at 15 uM after 12 to 26 hrs by Western blot analysis; format: cell-based
[14] = target: Cyclin-dependent kinase 2 (Homo sapiens) (UniProt P24941); experiment: Inhibition of CDK2 in human MDA-MB-468 cells assessed as decrease in cyclin E phosphorylation at Thr62 residues at 15 uM after 12 to 26 hrs by Western blot analysis; format: cell-based
MDA-MB-468 [15] = experiment: Induction of morphological changes in human MDA-MB-468 cells at 15 uM after 6 to 24 hrs by Hoechst 33258 staining based fluorescence microscopy; format: functional, cell-based
MDA-MB-468 [16] = experiment: Induction of apoptosis in human MDA-MB-468 cells assessed as viable cells at 15 uM after 6 hrs by Annexin V-FITC/PI staining based flow cytometry (reference value: 91.43%); format: functional; details: MDA-MB-468, 6 h, read-out: Activity
MDA-MB-468 [17] = experiment: Induction of apoptosis in human MDA-MB-468 cells assessed as early apoptotic cells at 15 uM after 6 hrs by Annexin V-FITC/PI staining based flow cytometry (reference value: 5.74%); format: functional
MDA-MB-468 [18] = experiment: Induction of apoptosis in human MDA-MB-468 cells assessed as late apoptotic cells at 15 uM after 6 hrs by Annexin V-FITC/PI staining based flow cytometry (reference value: 2.49%); format: functional
MDA-MB-468 [19] = experiment: Induction of apoptosis in human MDA-MB-468 cells assessed as necrotic cells at 15 uM after 6 hrs by Annexin V-FITC/PI staining based flow cytometry (reference value: 0.34%); format: functional
MDA-MB-468 [20] = experiment: Induction of apoptosis in human MDA-MB-468 cells assessed as viable cells at 15 uM after 12 hrs by Annexin V-FITC/PI staining based flow cytometry (reference value: 91.43%); format: functional; details: MDA-MB-468, 12 h, read-out: Activity
MDA-MB-468 [21] = experiment: Induction of apoptosis in human MDA-MB-468 cells assessed as early apoptotic cells at 15 uM after 12 hrs by Annexin V-FITC/PI staining based flow cytometry (reference value: 5.74%); format: functional
MDA-MB-468 [22] = experiment: Induction of apoptosis in human MDA-MB-468 cells assessed as late apoptotic cells at 15 uM after 12 hrs by Annexin V-FITC/PI staining based flow cytometry (reference value: 2.49%); format: functional
MDA-MB-468 [23] = experiment: Induction of apoptosis in human MDA-MB-468 cells assessed as necrotic cells at 15 uM after 12 hrs by Annexin V-FITC/PI staining based flow cytometry (reference value: 0.34%); format: functional
MDA-MB-468 [24] = experiment: Induction of apoptosis in human MDA-MB-468 cells assessed as viable cells at 15 uM after 24 hrs by Annexin V-FITC/PI staining based flow cytometry (reference value: 91.43%); format: functional; details: MDA-MB-468, 24 h, read-out: Activity
MDA-MB-468 [25] = experiment: Induction of apoptosis in human MDA-MB-468 cells assessed as early apoptotic cells at 15 uM after 24 hrs by Annexin V-FITC/PI staining based flow cytometry (reference value: 5.74%); format: functional
MDA-MB-468 [26] = experiment: Induction of apoptosis in human MDA-MB-468 cells assessed as late apoptotic cells at 15 uM after 24 hrs by Annexin V-FITC/PI staining based flow cytometry (reference value: 2.49%); format: functional
MDA-MB-468 [27] = experiment: Induction of apoptosis in human MDA-MB-468 cells assessed as necrotic cells at 15 uM after 24 hrs by Annexin V-FITC/PI staining based flow cytometry (reference value: 0.34%); format: functional
[28] = target: Cyclin-dependent kinase 2 (Homo sapiens) (UniProt P24941); experiment: Inhibition of CDK2 in human MDA-MB-468 cells assessed as increase in bax expression level at 15 uM measured up to 36 hrs by Western blot analysis; format: cell-based
[29] = target: Cyclin-dependent kinase 2 (Homo sapiens) (UniProt P24941); experiment: Inhibition of CDK2 in human MDA-MB-468 cells assessed as increase in bim expression level at 15 uM measured up to 36 hrs by Western blot analysis; format: cell-based
MDA-MB-468 [30] = experiment: Effect on cyclin E level in human CDK2-siRNA MDA-MB-468 cells at 15 uM by Western blot analysis; format: functional, cell-based
MDA-MB-468 [31] = experiment: Effect on bim level in human CDK2-siRNA MDA-MB-468 cells at 15 uM by Western blot analysis; format: functional, cell-based

CDK7/Cyclin H/MNAT1, sequence (P51946 whole entry): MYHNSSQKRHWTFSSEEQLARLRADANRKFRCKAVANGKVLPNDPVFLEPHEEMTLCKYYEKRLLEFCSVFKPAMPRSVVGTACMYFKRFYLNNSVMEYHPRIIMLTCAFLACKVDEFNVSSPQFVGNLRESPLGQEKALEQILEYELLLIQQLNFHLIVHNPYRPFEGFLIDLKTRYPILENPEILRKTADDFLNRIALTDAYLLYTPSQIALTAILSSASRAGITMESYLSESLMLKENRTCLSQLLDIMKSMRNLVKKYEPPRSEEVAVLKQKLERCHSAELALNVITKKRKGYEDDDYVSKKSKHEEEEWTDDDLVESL
CDK7/Cyclin H/MNAT1, sequence (P50613 whole entry): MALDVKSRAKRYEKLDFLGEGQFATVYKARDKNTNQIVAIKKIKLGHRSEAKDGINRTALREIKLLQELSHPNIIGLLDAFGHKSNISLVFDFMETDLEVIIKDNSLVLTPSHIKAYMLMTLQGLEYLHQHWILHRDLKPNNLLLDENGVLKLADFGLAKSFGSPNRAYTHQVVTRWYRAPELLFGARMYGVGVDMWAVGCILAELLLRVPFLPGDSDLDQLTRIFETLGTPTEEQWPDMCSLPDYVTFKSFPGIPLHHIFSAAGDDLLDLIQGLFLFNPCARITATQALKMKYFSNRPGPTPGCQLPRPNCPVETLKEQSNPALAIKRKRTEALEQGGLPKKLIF
CDK7/Cyclin H/MNAT1, sequence (P51948 whole entry, further chain): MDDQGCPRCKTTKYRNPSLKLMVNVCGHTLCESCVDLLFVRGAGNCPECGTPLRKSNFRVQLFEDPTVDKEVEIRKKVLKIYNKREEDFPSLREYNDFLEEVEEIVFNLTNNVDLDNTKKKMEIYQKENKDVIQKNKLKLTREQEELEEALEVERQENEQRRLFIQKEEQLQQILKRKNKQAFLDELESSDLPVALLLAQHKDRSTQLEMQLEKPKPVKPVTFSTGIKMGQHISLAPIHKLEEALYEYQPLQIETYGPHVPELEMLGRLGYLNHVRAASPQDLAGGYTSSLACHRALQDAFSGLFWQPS
Cyclin-dependent kinase 4/cyclin D1, sequence (P11802 whole entry): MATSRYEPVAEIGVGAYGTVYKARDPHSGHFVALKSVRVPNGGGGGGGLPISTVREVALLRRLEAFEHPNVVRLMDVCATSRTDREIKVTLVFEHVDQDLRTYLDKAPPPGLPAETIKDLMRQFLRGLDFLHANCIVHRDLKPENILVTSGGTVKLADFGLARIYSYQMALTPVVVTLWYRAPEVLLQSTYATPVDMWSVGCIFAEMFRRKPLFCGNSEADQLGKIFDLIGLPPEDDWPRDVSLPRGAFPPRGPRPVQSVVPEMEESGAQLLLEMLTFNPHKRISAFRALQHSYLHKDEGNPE
Cyclin-dependent kinase 4/cyclin D1, sequence (P24385 whole entry, further chain): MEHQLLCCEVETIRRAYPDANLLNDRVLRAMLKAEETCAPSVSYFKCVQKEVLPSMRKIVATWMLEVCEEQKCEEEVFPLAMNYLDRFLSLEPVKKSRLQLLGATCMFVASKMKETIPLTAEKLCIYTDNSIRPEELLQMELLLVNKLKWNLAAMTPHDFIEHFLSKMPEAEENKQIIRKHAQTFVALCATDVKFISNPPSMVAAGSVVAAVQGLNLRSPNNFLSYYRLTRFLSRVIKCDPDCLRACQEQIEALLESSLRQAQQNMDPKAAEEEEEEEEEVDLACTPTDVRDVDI
CDK6/cyclin D3, sequence (P30281 whole entry): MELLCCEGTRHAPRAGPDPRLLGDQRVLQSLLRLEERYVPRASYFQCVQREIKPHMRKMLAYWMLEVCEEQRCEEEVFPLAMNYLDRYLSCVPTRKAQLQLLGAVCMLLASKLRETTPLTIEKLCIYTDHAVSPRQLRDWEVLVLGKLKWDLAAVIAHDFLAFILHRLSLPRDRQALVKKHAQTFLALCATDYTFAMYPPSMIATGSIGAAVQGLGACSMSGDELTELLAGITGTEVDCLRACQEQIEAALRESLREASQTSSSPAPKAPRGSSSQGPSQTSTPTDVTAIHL
CDK6/cyclin D3, sequence (Q00534 whole entry): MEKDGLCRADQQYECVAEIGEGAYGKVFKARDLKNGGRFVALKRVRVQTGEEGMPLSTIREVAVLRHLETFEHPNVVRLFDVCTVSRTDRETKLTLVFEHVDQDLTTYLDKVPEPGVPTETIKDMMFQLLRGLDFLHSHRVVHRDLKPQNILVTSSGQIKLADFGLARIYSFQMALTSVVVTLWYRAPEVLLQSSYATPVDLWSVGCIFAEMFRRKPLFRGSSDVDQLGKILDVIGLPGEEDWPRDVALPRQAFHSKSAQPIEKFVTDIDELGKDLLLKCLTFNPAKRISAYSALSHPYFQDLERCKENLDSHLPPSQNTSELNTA

IC50 [1]: 205 nM
Structure (SMILES): Cc1cc(Nc2ccc(F)cc2)nc(N2CCC(NC(=O)c3ccccc3F)CC2)n1

IC50 [1]: 380 nM
Structure (SMILES): Cc1cccc(C(=O)NC2CCN(c3nc(C)cc(Nc4ccc(F)cc4)n3)CC2)c1

IC50 [1]: 288 nM
Structure (SMILES): Cc1cccc(C(=O)NC2CCN(c3nccc(Nc4ccccc4C)n3)CC2)c1

IC50 [1]: 287 nM
Structure (SMILES): Cc1cc(Nc2ccc(F)cc2)nc(N2CCC(NC(=O)c3cccc(Cl)c3)CC2)n1

IC50 [1]: 54.2 nM
Structure (SMILES): COc1ccc(C(=O)NC2CCN(c3nc(C)cc(Nc4ccc(F)cc4)n3)CC2)cc1

IC50 [1]: 378 nM
Structure (SMILES): COc1ccc(Nc2ccnc(N3CCC(NC(=O)c4ccc(C)cc4)CC3)n2)cc1

IC50 [1]: 151 nM
Structure (SMILES): O=C(NC1CCN(c2nccc(Nc3ccc(F)cc3)n2)CC1)c1ccc(F)cc1

IC50 [1]: 313 nM
Structure (SMILES): COc1ccc(Nc2ccnc(N3CCC(NC(=O)c4cccc(Cl)c4)CC3)n2)cc1

IC50 [1]: 286 nM
Structure (SMILES): COc1ccc(C(=O)NC2CCN(c3nccc(Nc4ccccc4C)n3)CC2)cc1

IC50 [1]: 153 nM
Structure (SMILES): Cc1cc(Nc2ccc(F)cc2)nc(N2CCC(NC(=O)c3ccc(F)cc3)CC2)n1

IC50 [1]: 459 nM
Structure (SMILES): Cc1ccccc1Nc1ccnc(N2CCC(NC(=O)c3ccc(F)cc3)CC2)n1

IC50 [1]: 241 nM
Structure (SMILES): O=C(NC1CCN(c2nccc(Nc3ccc(F)cc3)n2)CC1)c1ccccc1F

IC50 [1]: 501 nM
Structure (SMILES): Cc1ccccc1Nc1ccnc(N2CCC(NC(=O)c3cccc(Cl)c3)CC2)n1

IC50 [1]: 474 nM
Structure (SMILES): COc1ccc(Nc2ccnc(N3CCC(NC(=O)c4cccc(C)c4)CC3)n2)cc1

inhibition [3]: Active
inhibition [4]: Active
inhibition [5]: Active
IC50 [1]: 45.8 to 54.3 nM
IC50 [6]: 278 nM
IC50 (CDK6/cyclin D3): 54.3 to 73.7 nM
IC50 (CDK7/Cyclin H/MNAT1): 89.8 nM
IC50 (MDA-MB-468 [7]): 14300 nM
IC50 (MDA-MB-468 [8]): 8960 nM
IC50 (MDA-MB-468 [9]): 5740 nM
inhibition [13]: Active
inhibition [14]: Active
inhibition [28]: Active
inhibition [29]: Active
Structure (SMILES): COc1ccc(C(=O)NC2CCN(c3nccc(Nc4ccc(F)cc4)n3)CC2)cc1
growth inhibition (GI) (MDA-MB-231): Active
growth inhibition (GI) (786-0): Active
growth inhibition (GI) (MDA-MB-468 [2]): Active
growth inhibition (GI) (HepG2): Active
growth inhibition (GI) (WM 266-4): Active
growth inhibition (GI) (MCF7): Active
Activity (MDA-MB-468 [10]): 65.11%
Activity (MDA-MB-468 [11]): 9.64%
Activity (MDA-MB-468 [12]): 25.25%
Activity (MDA-MB-468 [15]): Active
viability at 15 µM (MDA-MB-468 [16]): 89.2%
Activity (MDA-MB-468 [17]): 4.62%
Activity (MDA-MB-468 [18]): 5.28%
Activity (MDA-MB-468 [19]): 0.87%
viability at 15 µM (MDA-MB-468 [20]): 76.6%
Activity (MDA-MB-468 [21]): 3.82%
Activity (MDA-MB-468 [22]): 16.82%
Activity (MDA-MB-468 [23]): 2.73%
viability at 15 µM (MDA-MB-468 [24]): 65.8%
Activity (MDA-MB-468 [25]): 6.02%
Activity (MDA-MB-468 [26]): 24.68%
Activity (MDA-MB-468 [27]): 3.46%
Activity (MDA-MB-468 [30]): inactive
Activity (MDA-MB-468 [31]): inactive

IC50 [1]: 386 nM
Structure (SMILES): Cc1cccc(C(=O)NC2CCN(c3nccc(Nc4ccc(F)cc4)n3)CC2)c1

IC50 [1]: 206 nM
Structure (SMILES): O=C(NC1CCN(c2nccc(Nc3ccc(F)cc3)n2)CC1)c1cccc(Cl)c1

IC50 [1]: 288 nM
Structure (SMILES): Cc1ccc(C(=O)NC2CCN(c3nc(C)cc(Nc4ccc(F)cc4)n3)CC2)cc1

IC50 [1]: 276 nM
Structure (SMILES): Cc1ccc(C(=O)NC2CCN(c3nccc(Nc4ccc(F)cc4)n3)CC2)cc1

IC50 [1]: 276 nM
Structure (SMILES): COc1ccc(Nc2ccnc(N3CCC(NC(=O)c4ccc(OC)cc4)CC3)n2)cc1

IC50 [1]: 399 nM
Structure (SMILES): Cc1ccccc1Nc1ccnc(N2CCC(NC(=O)c3ccccc3F)CC2)n1

IC50 [1]: 405 nM
Structure (SMILES): COc1ccc(Nc2ccnc(N3CCC(NC(=O)c4ccc(F)cc4)CC3)n2)cc1

IC50 [1]: 280 nM
Structure (SMILES): COc1ccc(Nc2ccnc(N3CCC(NC(=O)c4ccccc4F)CC3)n2)cc1

IC50 [1]: 567 nM
Structure (SMILES): Cc1ccc(C(=O)NC2CCN(c3nccc(Nc4ccccc4C)n3)CC2)cc1

Source: ChEMBL document CHEMBL4118232, “Design, synthesis and biological evaluation of pyrimidine derivatives as novel CDK2 inhibitors that induce apoptosis and cell cycle arrest in breast cancer cells” (Bioorg Med Chem, 2018)
